Calls of active or inactive are those of the source. The rule behind the calls is not given here.
Assays:
Rattus norvegicus [1] = assay: Inhibition of rat passive cutaneous anaphylaxis following i.p. administration.; type: functional; settings: ip
Rattus norvegicus [2] = assay: Inhibition of rat passive cutaneous anaphylaxis following p.o. administration.; settings: po
Rattus norvegicus [3] = assay: Inhibition of rat passive cutaneous anaphylaxis following p.o. administration; Not active.

N#Cc1cc(NC(=O)c2nnn[n-]2)c(Cl)c(NC(=O)c2nnn[n-]2)c1.[Na+].[Na+]
ED50 (Rattus norvegicus [1]): 0.3 mg/kg

N#Cc1c(NC(=O)c2nnn[n-]2)cccc1N1CCCCC1.[Na+]
ED50 (Rattus norvegicus [1]): 0.4 mg/kg | ED50 (Rattus norvegicus [2]): 7 mg/kg

CN1CCN(c2cccc(NC(=O)c3nn[nH]n3)c2C(N)=O)CC1
ED50 (Rattus norvegicus [1]): 0.01 mg/kg | ED50 (Rattus norvegicus [2]): 2.3 mg/kg

CN(C)c1cccc(NC(=O)c2nnn[n-]2)c1C#N.[Na+]
ED50 (Rattus norvegicus [1]): 2 mg/kg | ED50 (Rattus norvegicus [2]): 1.7 mg/kg

CN(C)c1cccc(NC(=O)c2nnn[n-]2)c1C(N)=O.[Na+]
ED50 (Rattus norvegicus [1]): 0.9 mg/kg | ED50 (Rattus norvegicus [2]): 34 mg/kg

N#Cc1c(NC(=O)c2nn[nH]n2)cccc1N1CCOCC1
ED50 (Rattus norvegicus [1]): 0.5 mg/kg | ED50 (Rattus norvegicus [2]): 10 mg/kg

O=C(Nc1ccccn1)c1nnn[n-]1.[Na+]
ED50 (Rattus norvegicus [1]): 0.31 mg/kg | ED50 (Rattus norvegicus [2]): 0.68 mg/kg

NC(=O)c1cc(NC(=O)c2nnn[n-]2)cc(NC(=O)c2nnn[n-]2)c1.[Na+].[Na+]
ED50 (Rattus norvegicus [1]): 0.02 mg/kg | ED50 (Rattus norvegicus [2]): > 10 mg/kg

O=C([O-])c1cc(=O)c2c(OCC(O)COc3cccc4oc(C(=O)[O-])cc(=O)c34)cccc2o1.[Na+].[Na+] [CROMOLYN SODIUM]
ED50 (Rattus norvegicus [1]): 8 mg/kg | ED50 (Rattus norvegicus [3]): inactive

N#Cc1ccccc1NC(=O)c1nnn[n-]1.[Na+]
ED50 (Rattus norvegicus [1]): 0.5 mg/kg | ED50 (Rattus norvegicus [2]): 10 mg/kg

CCNc1cccc(NC(=O)c2nnn[n-]2)c1C#N.[Na+]
ED50 (Rattus norvegicus [1]): 1.1 mg/kg | ED50 (Rattus norvegicus [2]): 2.6 mg/kg

CN1CCN(c2cccc(NC(=O)c3nn[nH]n3)c2C#N)CC1
ED50 (Rattus norvegicus [1]): 0.02 mg/kg | ED50 (Rattus norvegicus [2]): 0.2 mg/kg

O=C(Nc1cc(Cl)cc(NC(=O)c2nnn[n-]2)n1)c1nnn[n-]1.[Na+].[Na+]
ED50 (Rattus norvegicus [1]): 0.2 mg/kg | ED50 (Rattus norvegicus [2]): 2 mg/kg

CCOC(=O)C(=O)Nc1cc(C#N)cc(NC(=O)c2nn[nH]n2)c1
ED50 (Rattus norvegicus [1]): 0.2 mg/kg

NC(=O)c1c(NC(=O)c2nnn[n-]2)cccc1N1CCCCC1.[Na+]
ED50 (Rattus norvegicus [1]): 0.8 mg/kg | ED50 (Rattus norvegicus [2]): 46 mg/kg

N#Cc1cc(NC(=O)c2nnn[n-]2)cc(NC(=O)c2nnn[n-]2)c1.[Na+].[Na+]
ED50 (Rattus norvegicus [1]): 0.04 mg/kg | ED50 (Rattus norvegicus [2]): 1 mg/kg

COc1cccc(NC(=O)c2nn[nH]n2)c1C(N)=O
ED50 (Rattus norvegicus [1]): 0.1 mg/kg | ED50 (Rattus norvegicus [2]): 0.2 mg/kg

NC(=O)c1c(NC(=O)c2nnn[n-]2)cccc1N1CCOCC1.[Na+]
ED50 (Rattus norvegicus [1]): 0.2 mg/kg

O=C(Nc1cccc(NC(=O)c2nnn[n-]2)n1)c1nnn[n-]1.[Na+].[Na+]
ED50 (Rattus norvegicus [1]): 0.02 mg/kg | ED50 (Rattus norvegicus [2]): 0.1 mg/kg

O=C(Nc1cc(C(F)(F)F)cc(NC(=O)c2nnn[n-]2)c1Cl)c1nnn[n-]1.[Na+].[Na+]
ED50 (Rattus norvegicus [1]): 1.6 mg/kg

Reference: ChEMBL document CHEMBL1121892, “5-Tetrazolecarboxamides and their salts: new orally active antiallergy agents” (1981)
